From BindingDB's records for doi:10.1016/j.bioorg.2014.05.010 (Ain Shams University, 2014)

Biological target: Vascular endothelial growth factor receptor 2 (Homo sapiens, UniProt P35968)
Assay: In vitro Inhibition Assay
Conditions: 30 °C
Protocol: Assays are performed for 15 min at 30 °C, with 50 µM of P33-ATP in a final volume of 25 µL. The assays are terminated by spotting 20 µL of the reaction mixture onto a phosphocellulose P81 plate. The P81 plate was washed 3 times for ~15 min each in a 1% phosphoric acid solution to remove excess unreacted P33-ATP.

Chain of Vascular endothelial growth factor receptor 2 (P35968 whole entry): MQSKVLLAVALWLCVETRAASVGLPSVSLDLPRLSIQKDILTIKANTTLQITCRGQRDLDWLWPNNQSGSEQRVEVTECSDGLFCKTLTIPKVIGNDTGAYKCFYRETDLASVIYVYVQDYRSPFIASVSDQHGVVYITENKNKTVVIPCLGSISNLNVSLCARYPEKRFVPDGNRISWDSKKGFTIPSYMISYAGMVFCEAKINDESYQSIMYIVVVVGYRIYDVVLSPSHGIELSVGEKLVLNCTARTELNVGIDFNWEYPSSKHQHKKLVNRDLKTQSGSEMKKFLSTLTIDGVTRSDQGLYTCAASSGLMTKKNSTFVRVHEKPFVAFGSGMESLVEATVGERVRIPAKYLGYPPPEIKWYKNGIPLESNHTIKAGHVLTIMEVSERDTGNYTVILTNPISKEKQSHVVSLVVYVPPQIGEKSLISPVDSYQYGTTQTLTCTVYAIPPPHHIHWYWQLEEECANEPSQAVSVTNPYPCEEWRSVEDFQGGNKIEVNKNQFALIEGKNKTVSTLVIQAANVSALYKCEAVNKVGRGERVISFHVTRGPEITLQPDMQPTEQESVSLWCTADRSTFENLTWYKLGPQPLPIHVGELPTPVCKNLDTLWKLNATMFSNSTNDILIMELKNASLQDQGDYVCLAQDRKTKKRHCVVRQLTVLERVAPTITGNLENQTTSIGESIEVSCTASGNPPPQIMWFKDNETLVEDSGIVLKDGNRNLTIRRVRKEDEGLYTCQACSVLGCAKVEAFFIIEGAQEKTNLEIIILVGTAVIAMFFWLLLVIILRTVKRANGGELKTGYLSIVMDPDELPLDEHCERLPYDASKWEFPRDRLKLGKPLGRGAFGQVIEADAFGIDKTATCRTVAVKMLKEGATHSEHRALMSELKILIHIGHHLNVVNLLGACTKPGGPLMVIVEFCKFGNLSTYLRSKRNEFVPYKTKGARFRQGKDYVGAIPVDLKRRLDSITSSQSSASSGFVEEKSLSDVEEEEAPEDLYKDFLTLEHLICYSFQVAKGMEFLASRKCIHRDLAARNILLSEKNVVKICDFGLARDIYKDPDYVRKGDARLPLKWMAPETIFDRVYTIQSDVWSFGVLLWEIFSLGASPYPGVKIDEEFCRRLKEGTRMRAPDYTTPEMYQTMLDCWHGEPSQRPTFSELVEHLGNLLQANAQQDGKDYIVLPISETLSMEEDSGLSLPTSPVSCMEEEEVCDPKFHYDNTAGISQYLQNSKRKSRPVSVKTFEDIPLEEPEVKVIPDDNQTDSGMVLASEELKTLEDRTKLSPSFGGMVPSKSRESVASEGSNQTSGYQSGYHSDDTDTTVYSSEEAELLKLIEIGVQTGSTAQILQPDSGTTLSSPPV

| IC50 | Compound |
| --- | --- |
| 61.8 µM | COc1ccc(Nc2nc3ccc(NC(=O)c4ccccc4C(=O)O)cc3[nH]c2=O)cc1 [2-((2-((4-Methoxyphenyl)amino)-3-oxo-3,4-dihydroquinoxalin-6-yl)carbamoyl)benzoic acid (IX)] |
| 268 µM | O=C(Nc1ccccc1)Nc1ccc(Nc2cnc3cc([N+](=O)[O-])ccc3n2)cc1 [1-(4-((6-Nitroquinoxalin-2-yl)amino)phenyl)-3-phenylurea (XXIa)] |
| 10.3 µM | COc1ccc(Nc2nc3ccc(NC(=O)Nc4ccccc4)cc3[nH]c2=O)cc1 [1-(2-((4-Methoxyphenyl)amino)-3-oxo-3,4 dihydroquinoxalin-6-yl)-3-phenylurea (VIIa)] |
| 85.4 µM | O=C(Nc1ccc(Nc2cnc3cc([N+](=O)[O-])ccc3n2)cc1)Nc1cccc(Cl)c1 [1-(3-Chlorophenyl)-3-(4-((6-nitroquinoxalin-2-yl)amino)-phenyl)urea (XXIb)] |
| 210 µM | COc1ccc(Nc2cnc3cc(NC(=O)Nc4cccc(C)c4)ccc3n2)cc1 [1-(2-((4-Methoxyphenyl)amino)quinoxalin-6-yl)-3-(m-tolyl) urea (XVIc)] |
